How the values were obtained:
[1] = test system: histamine-induced spasms of guinea-pig ileum strips; assay: Anti-histamine activity in vitro (guinea-pig ileum); type: cell-based; settings: Table I-b; histamine 0.5 mg/liter, 5 minutes incubation, significant inhibition (50%) of contraction
Experimental: The histamine-(0.5 mg/liter) induced spasms are recorded Kymographically with an isotonic lever giving a 5-fold magnification.

[2] = test system: anaphylactic shock in guinea pigs sensitized to ovalbumin; assay: Anaphylaxis in guinea pigs: protection against death (survival) after ovalbumin challenge; type: in vivo, guinea pig; settings: Table I-b; estimated ED50, oral, protection against death after i.v. 0.6 mg ovalbumin
Experimental: The anti-anaphylactic and antihistaminic effects of the subject compounds (I) and salts thereof are studied "in vivo" in guinea pigs.
(§1) Guinea pigs, weighing between 400 and 500 g, are sensitized to ovalbumin by subplantar (s.p.) injection of 0.05 ml of antiserum in the left hind paw. The animals are then starved and orally treated, 24 hours after the sensitization, with saline (=control animals) or a particular dose of the compound under investigation.
The histamine injection (at a dose of 50 μg) was given s.p. in the right hind paw 2 hours after the oral pretreatment with the compound. The diameters of both hind paws are first measured before the histamine injection is given and again 10 minutes thereafter. The animals are challenged intravenously with 0.6 mg of ovalbumin 30 minutes after the histamine injection. All control animals develop tyical primary anaphylactic shock symptoms (coughing, difficult breathing, convulsions) and 85% of these control animals die within 15 minutes after the ovalbumin injection. Protection against death is used as the criterion for possible drug effects and the estimated ED50 -value, i.e. the oral dose whereby the protection is observed in 50% of the guinea pigs, is listed in the tables below.

[3] = test system: histamine paw oedema in guinea pigs; assay: Histamine paw oedema in guinea pigs; type: in vivo, guinea pig; settings: Table I-b, 2 hours before s.p. histamine 50 μg, oedema below 10 units at 10 minutes
Experimental: as §1, with “investigation. The histamine injection (at a dose of 50 μg) was given s.p. in the right hind paw 2 hours after the oral pretreatment with the compound.” for “investigation.”

## 1-[3-{4-[(3-chlorophenyl)phenylmethyl]-1-piperazinyl}propyl]-1H-benzimidazole trihydrochloride.hydrate.hemi-2-propanolate [I-b: M=H, R1=H, (CH2)4, R6=3-Cl, R7=H]
[1]
  Histamine in "vitro" (ileum) effective conc.: 0.01 mg/L
[2]
  Anaphylaxis in guinea pigs oral effective dose in mg/kg: Survival: 1.25 mg/kg
[3]
  Anaphylaxis in guinea pigs oral effective dose in mg/kg: Histamine oedema: 1.25 mg/kg

Source: patent US4377578A, “Piperazine derivatives” (priority 1981, dated 1983)
